Here are results for six molecules from patent US20050050594A1, “Tryptophan synthase as a site of herbicide action” (priority 1999, published 2005).

In general, Ki refers to the equilibrium dissociation constant of an inhibitor or competing ligand from its target.

The target of one experiment is T1, Arabidopsis TS enzyme (Arabidopsis thaliana, UniProt Q42529).
T1 construct: GST (N, cleaved yes); made in house; host or cells: E. coli DH5α (pGEX-2T constructs)
T1 sequence (Q42529 with tags, fused parts or gaps): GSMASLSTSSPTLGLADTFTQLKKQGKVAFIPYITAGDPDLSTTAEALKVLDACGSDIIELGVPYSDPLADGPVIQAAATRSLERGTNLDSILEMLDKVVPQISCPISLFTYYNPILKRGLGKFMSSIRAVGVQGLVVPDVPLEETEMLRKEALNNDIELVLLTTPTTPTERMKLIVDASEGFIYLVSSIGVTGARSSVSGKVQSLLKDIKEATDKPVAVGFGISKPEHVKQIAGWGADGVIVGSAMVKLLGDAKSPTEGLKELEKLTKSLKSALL
T1 sequence (P14671 with tags, fused parts or gaps partner): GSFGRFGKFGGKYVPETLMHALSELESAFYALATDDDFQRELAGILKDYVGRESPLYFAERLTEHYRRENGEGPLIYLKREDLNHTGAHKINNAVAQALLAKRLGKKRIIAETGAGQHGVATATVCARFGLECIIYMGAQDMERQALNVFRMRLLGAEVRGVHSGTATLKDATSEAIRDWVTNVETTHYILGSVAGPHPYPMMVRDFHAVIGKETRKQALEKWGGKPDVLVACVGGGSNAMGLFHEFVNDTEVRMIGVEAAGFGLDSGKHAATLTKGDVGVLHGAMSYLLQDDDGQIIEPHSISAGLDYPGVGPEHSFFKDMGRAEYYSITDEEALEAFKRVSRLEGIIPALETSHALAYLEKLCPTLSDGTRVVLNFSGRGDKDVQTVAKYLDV
The experiment in a line: TSα assay with recombinant plant TSα and TSβ expressed in E. coli. As to conditions: inhibitor 82 uM; pAC 758 (1.5 ug) + pAC 755 (3 ug). The experiment is classed as biochemical. The method, then: The plant TS proteins were expressed as fusion proteins with glutathione transferase (GST) to facilitate purification. After purification, the GST protein was cleaved off with thrombin as described above before the plant TS assays were performed. After thrombin cleavage, both TSα and TSβ-subunit proteins retained a Gly-Ser residue on the N-terminal of the protein in addition to the TS sequence. […]
The TSα enzyme assay was conducted as described in Example 3 for Salmonella TSα.
Specifically, phenylthiophosphonic acid compounds were used. The TSα assay conditions were as described for Salmonella TSα in Example 3 except that recombinant plant proteins were used instead of the Salmonella enzyme.

Experiment [1] deals with a variety of dicotyledonous and monocotyledonous plants. The experiment in a line: Postemergence greenhouse herbicidal test. The experiment is classed as in vivo. The method, then:
The herbicidal activity of the compounds was tested as described in the U.S. Pat. No. 5,635,449. […] In the tests, seedling plants are grown in jiffy flats for about two weeks. The test compounds are dispersed in 50/50 acetone/water mixtures containing 0.5% TWEEN®20, a polyoxyethylene sorbitan monolaurate surfactant of Atlas Chemical Industries, in sufficient quantities to provide the equivalent of about 1.0 kg to 8.0 kg per hectare of test compound when applied to the plants through a spray nozzle operating at 40 psi for a predetermined time. After spraying, the plants are placed on greenhouse benches and are cared for in the usual manner, commensurate with conventional greenhouse practices. From four to five weeks after treatment, the seedling plants are examined and rate according to the rating system set forth below.

Experiment [2] addresses T2, Salmonella typhimurium tryptophan synthase holoenzyme (α2β2), TSα reaction (Salmonella typhimurium, UniProt P00929).
T2 construct: made in house; host or cells: E. coli strain CB149pSTB7
As to the kind of experiment: Inhibition of tryptophan synthase by the TSα reaction, microtiter kinetic coupled enzyme assay. The experiment is classed as biochemical. The source says:
Inhibitors of TS were identified by their ability to inhibit the production of glyceraldehyde-3-P by the TSα reaction of the Salmonella typhimurium holoenzyme (α2β2) in the presence of a limiting amount of indole-3-glycerolphosphate and an excess of serine
The assay was developed as a new microtiter plate kinetic enzyme assay based on the combined methods of Creighton (EurJBch 13:1-10, 1970) and Creighton and Yanofsky (JBC 241:980, 1966) with modifications. The rate of glyceraldehyde production was measured as the linear […] (spectrophotometric absorbance at 340 nm) in the presence of glyceraldehyde-3-phosphate dehydrogenase in a coupled enzyme assay.
The assay solution contained a test inhibitor compound, 50 mM Tris-Cl (pH 7.8), 6 mM sodium arsenate, 5 μg/ml pyridoxal phosphate, 0.5 mM DTT, 0.18M NaCl, 60 mM serine, 1.6 mM NAD+, 8 e.u./ml yeast glyceraldehyde-3-phosphate dehydrogenase (Sigma, Catalog #G2647; Kirschner et al., Eur J Bch, 1975, 60:513 and approximately 1.5 e.u. Salmonella TS. 100 μM IGP was added to start the reaction, which was run at 37° C. and using 300 μl per assay in a microtiter plate.
The substrate IGP was used at 1.5 to 2 times its Km concentration to enhance the likelihood of identifying weak inhibitors, binding at the substrate binding site. This approach to identifying enzyme inhibitors was novel, since an excess of all substrates, (at least 5-times the Km value of each), is conventionally used in the measurement of enzyme activity.
Potential inhibitors were evaluated by adding 100 μM inhibitor (equimolar to substrate IGP):or less, in a 1:1 dilution series down from 100 μM, until the inhibition measured was less than 15%. Reaction rates at Vmax were compared in the presence and absence of inhibitors.
In addition, some weaker inhibitors were identified following preincubation of the inhibitor with the TS assay mix for 24 hrs prior to the addition of IGP. The identifying weaker inhibitors is to aid in a quantitative structure activity relationship (QSAR) evaluation, or to identify new herbicidal inhibitor leads. The previously known inhibitor IPP was used as a standard in all tests, where the I50 for IPP was 1-2 uM.

The next experiment concerns TSβ (Spinacea enzyme). The experiment in a line: TSβ assay with partially purified spinach enzyme. The experiment is classed as biochemical, Spinacea oleracea. Further details: key: the increase in the number of “+” corresponds to the increase of inhibition; +++++: the increase in the number of “+” corresponds to the increase of inhibition; +++++++: the increase in the number of “+” corresponds to the increase of inhibition. To be noted: determined qualitatively. How it is done: The assay was conducted in microfuge tubes by the TSβ reaction (indole+L-serine→L-tryptophan+H2O). 100 μL of extract was mixed with 150 μL of 0.4 mM indole, 80 mM serine, 0.03 mM PLP, 0.1 M Tris-Cl buffer pH 7.8, containing 7.5 μL of saturated NaCl. The mixture was incubated at 21° C. for increasing time intervals, from 10 min to several hours. The reaction was terminated by adding 25 μL 1 N NaOH, then 1 mL toluene with mixing, and then centifuging in a microfuge 2 min at 10,000×G to partition remaining indole into the toluene phase and away from the enzyme. Remaining indole was subsequently partitioned into the indole reagent phase and reacted with dimethylaminobenzaldehyde: 500 μL of the toluene layer from the microfuge tubes was mixed with 1 ml of the indole reagent in another tube and allowed to separate for 20 min, then the lower layer was carefully pipetted into a cuvette and its absorbance measured at 540 nm. This part of the assay was conducted as known in the art.
A unique microtiter plate method was also developed to streamline the partitioning steps and data collection. First, the TSβ reaction was performed as above in microfuge tubes. […] The plate was covered by a mylar sheet (to protect the plate reader and avoid evaporation) and absorbance was monitored on the plate reader at 535 nm. […]
TS was partially purified from spinach for use in the TSβ assay. The greatest degree of purification was achieved by homogenizing the tissue, preparing the 30-50% ammonium sulfate fraction and freezing it, thawing it, and applying the dissolved precipitate to an FPLC column (Waters SW300, Waters Corporation, Franklin, Mass.) to separate the TS activity (measured as TSβ) from the bulk of the protein. […] Because of the low yield of the assay of partially purified plant TS, endogenous enzyme was measured in crude extracts or in enzyme preparations involving one or two purification steps. […]

For a further experiment, the target named is TSα subunit. As to conditions: TSα subunit reaction; cited from earlier work.
Another experiment deals with Arabidopsis thaliana. The experiment in a line: Herbicidal activity and tryptophan reversal on Arabidopsis grown on agar medium. Also on record: key: 0 - no effect; 9 - total kill; C - chlorotic seedlings 4-6 days after treatment. Format: in vivo. The method, then:
In this experiment, TS inhibitors were tested on Arabidopsis thaliana grown Murashige minimal organics medium, (obtained from Life Technologies, Grand Island, N.Y.), containing 0.7% agar. Compounds were tested at different concentrations to assess their herbicidal activity.

The mark [3] stands for this setting: I50 TS, TSα reaction of Salmonella holoenzyme.

Where two headings read alike, the source gives them in different places. Marks after values point to notes of the source that are not given here.

T2 sequence (P00929 whole entry): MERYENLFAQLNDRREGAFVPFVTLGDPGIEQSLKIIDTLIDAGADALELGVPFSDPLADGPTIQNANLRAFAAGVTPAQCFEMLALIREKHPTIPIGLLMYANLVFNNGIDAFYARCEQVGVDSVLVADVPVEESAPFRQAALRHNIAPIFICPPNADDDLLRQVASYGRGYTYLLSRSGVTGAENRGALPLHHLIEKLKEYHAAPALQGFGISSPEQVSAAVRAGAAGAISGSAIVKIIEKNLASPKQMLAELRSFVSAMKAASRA
T2 sequence (P0A2K1 2-397, further chain): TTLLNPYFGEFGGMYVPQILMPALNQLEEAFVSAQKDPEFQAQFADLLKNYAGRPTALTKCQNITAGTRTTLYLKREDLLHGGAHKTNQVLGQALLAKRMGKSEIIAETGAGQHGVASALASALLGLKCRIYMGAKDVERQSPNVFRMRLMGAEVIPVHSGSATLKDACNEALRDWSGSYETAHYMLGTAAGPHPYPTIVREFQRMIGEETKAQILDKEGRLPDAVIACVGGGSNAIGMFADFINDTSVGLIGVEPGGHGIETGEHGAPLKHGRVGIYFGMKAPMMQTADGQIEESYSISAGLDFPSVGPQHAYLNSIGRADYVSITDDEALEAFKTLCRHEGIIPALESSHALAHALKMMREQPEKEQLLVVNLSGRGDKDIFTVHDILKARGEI

On to `O=P(O)(O)C=CCCSc1cc(Br)ccc1O` [Compound 31, Phosphonic acid, {4-[(5-bromo-2-hydroxyphenyl)thio]-1-butenyl}-], for which, at Arabidopsis TS enzyme, the “TSα activity, % of control” value was 16.1 % of control and the “TSα activity, relative Vmax” value amounted to 0.238 mOD/min. The “Herbicidal Activity” value in experiment [1] (Postemergence application) is on record as “+ (+ = 30-80% injury to one species)”. In experiment [2] (setting [3]), this molecule gave an IC50 of 260 nM.

As to `Cc1ccc(SCCCCP(=O)(O)O)c(N)c1` [Phosphonic acid,-{4-[(2-amino-p-tolyl)thio]butyl}-], in experiment [2] (TSα activity (Salmonella enzyme) I50), the IC50 was determined as 1000 nM. For the same molecule, the “TSβ (Spinacea enzyme), relative activity” value with TSβ (Spinacea enzyme) is “+++++++*”.

Regarding “Phosphonic acid, {4-[(o-aminophenyl)thio]butyl}-, compound with cyclohexylamine (1:2)”, the IC50 is 400 nM in experiment [2] (TSα reaction, Salmonella holoenzyme, 30 min at 37° C., 100 μM IGP, read-out: TS inhibition I50) and 550 nM in experiment [2] (read-out: TSα activity (Salmonella enzyme) I50). In addition, the “TSβ (Spinacea enzyme), relative activity” value in the experiment with TSβ (Spinacea enzyme) is listed as “+++++”.

Regarding `O=P(O)(O)OCCCc1c[nH]c2ccccc12` [Compound 1, indole-3-propanol phosphate, reference compound], on Arabidopsis TS enzyme, the “TSα activity, % of control” value is given as 35.9 % of control. At Arabidopsis TS enzyme, the “TSα activity, relative Vmax” value is 2.223 mOD/min. Further, at TSα subunit, the Ki was 15 µM. Also, the Herbicidal Activity entry in experiment [1] (post emergence greenhouse test, 4 kg/ha) was “inactive”. Moreover, the IC50 is 5000 nM in experiment [2] (I50 TS, TSα reaction of the highly purified Salmonella typhimiurium holoenzyme); 1000 to 2000 nM in experiment [2] (I50 for IPP used as a standard in all tests, TSα reaction, 100 μM IGP); 2000 nM in experiment [2] (TS inhibition I50, TSα reaction, Salmonella holoenzyme, 30 min at 37° C., 100 μM IGP).

As for `O=P(O)(O)CCCC[S+]([O-])c1ccccc1O` (centres unmarked) [Compound 32, {4-[(o-hydroxyphenyl)sulfinyl]butyl}phosphonic acid], on Arabidopsis TS enzyme, the “TSα activity, % of control” value is recorded as 1.5 % of control and the “TSα activity, relative Vmax” value is given as 0.095 mOD/min. For the same molecule, in experiment [1] (Postemergence application), the “Herbicidal Activity” value is “+++ (+++ = 80-100% injury to two species)”. The molecule further registered an IC50 in experiment [2] (setting [3]) of 440 nM.

In the case of `O=P(O)(O)C=CCCSc1ccccc1O` [Compound 28, {4-[(o-hydroxyphenyl)thio]-1-butenyl}phosphonic acid], in experiment [1] (Postemergence application), the “Herbicidal Activity” value is “++++ (++++ = 80-100% injury to more than three species)”. In addition, in experiment [2] (setting [3]), the IC50 is 570 nM. For the same molecule, the herbicidal rating in the experiment with Arabidopsis thaliana (herbicide 7.8 mM + 100 μM Trp) is recorded as 0; in the experiment on Arabidopsis thaliana (herbicide 7.8 mM, no Trp), 5C; in the experiment with Arabidopsis thaliana (herbicide 16 mM + 100 μM Trp), 0; in the experiment on Arabidopsis thaliana (herbicide 16 mM, no Trp), 5C; with Arabidopsis thaliana (herbicide 31 mM + 100 μM Trp), 0; in the experiment with Arabidopsis thaliana (herbicide 31 mM, no Trp), 5C. Besides, the herbicidal rating is listed as 0 with Arabidopsis thaliana (herbicide 63 mM + 100 μM Trp); 6C with Arabidopsis thaliana (herbicide 63 mM, no Trp); 0 with Arabidopsis thaliana (herbicide 125 mM + 100 μM Trp); 6C with Arabidopsis thaliana (herbicide 125 mM, no Trp); 0 with Arabidopsis thaliana (herbicide 250 mM + 100 μM Trp); 6C with Arabidopsis thaliana (herbicide 250 mM, no Trp). The herbicidal rating in the experiment on Arabidopsis thaliana (herbicide 500 mM + 100 μM Trp) amounted to 0; in the experiment with Arabidopsis thaliana (herbicide 500 mM, no Trp), 6C; in the experiment with Arabidopsis thaliana (herbicide 1000 mM + 100 μM Trp), 0; in the experiment on Arabidopsis thaliana (herbicide 1000 mM, no Trp), 6C.
